Test system: 299254-011-R-J1-PDC complex spheroid viability
Assay: Anticancer human tumor 299254-011-R-J1-PDC patient-derived melanoma cell line growth inhibition [POLQ]
Conditions: for IC50: curve of first compound; for viability, T/C: stronger effect = lower value
Description: Multicellular complex tumor spheroid response to Polymerase (POL) inhibitors (novobiocin, ART-558, RP6685) in combination with a variety of drugs and investigational agents in selected tumor cell lines
The POL inhibitors (novobiocin, ART-558, and RP6685) were evaluated both individually and in combination with standard of care and investigational anticancer small molecules within a complex spheroid model of solid tumors. . Complex spheroids include a stromal component modeled by human endothelial cells (HUVEC) and fibroblasts modeled by human mesenchymal stem cells (MSCs). The concentration ranges selected for each drug and investigational agent were based upon clinically achievable concentrations if the clinical Cmax of the agent was known.
Compounds. The drugs and investigational agents: novobiocin (NSC847541), ART-558 (NSC835418), RP-6685 (NSC848927), peposertib (NSC802822), ceralasertib (NSC780249), elimusertib (NSC800525), camonsertib (NSC841442), AZD-1390 (NSC803789), olaparib (NSC753686), talazoparib (NSC767125), rucaparib (NSC756644), sotorasib (NSC818433), MRTX-1133 (NSC836407), SN-38 (NSC673596), topotecan (NSC609699), epotoside (NSC141540), doxorubicin (NSC123127), gemcitabine (NSC613327), 5-fluorouracil (NSC19893), paclitaxel (NSC125973), vemurafenib (NSC761431), MSA-2 (NSC828583), SN-011 (NSC837082), adavosertib (NSC754352), prexasertib (NSC758257), carboplatin (NSC241240) and oxaliplatin (NSC266046), were obtained from the National Cancer Institute (NCI) Developmental Therapeutics Program Chemical Repository (21). The FDA-approved anticancer drug set is available from the Developmental Therapeutics Program at https://dtp.cancer.gov/organization/dscb/obtaining/. […] The stock solutions were prepared in dimethyl sulfoxide (DMSO, Sigma-Aldrich, St. Louis, MO, cat. D2650), except for the platinum compounds which were prepared in saline (Quality Biological, Gaithersburg, MD, cat. 114-055-101), at 800-fold the tested concentration and stored at -70 degrees C prior to their use. All drugs and investigational agents were tested over a range starting from a high concentration at or near the clinical Cmax and decreasing in half-log increments. If the clinical Cmax for an agent had not been determined, the highest concentration tested was 10 microM, except for SN-38, which was tested at a high concentration of 1 microM.
Cell Culture. All cells were maintained in an incubator at 37 degrees C and 5% CO2 with 95% humidity. The PDC lines were cultured according to standard operating procedures established by the NCI PDMR (https://pdmr.cancer.gov). Table 3 of the manuscript, lists the cell lines along with the number of the three cell types plated to form the mct-spheroids and media for tumor cell growth. After thawing, all PDC lines, except 997537-175-T-J1-PDC and 415267-285-R-J2-PDC, were cultured in Matrigel-coated flasks prepared with a working solution of 1X Ham's F-12 nutrient mix, without supplementation (Thermo Fisher Scientific, cat. 11765054), 100 U/mL penicillin-streptomycin (Thermo Fisher Scientific, cat. 15140122), and 2.5% Matrigel (Corning Inc., Corning, NY, cat. 354248) for the first three passages. The two PDC lines 997537-175-T-J1-PDC and 415267-285-R-J2-PDC were cultured on uncoated flasks. The 857933-349-R-J2-PDC line was cultured in 6C/Colon 1B media containing advanced DMEM/F-12 (Thermo Fisher Scientific, cat. 12634028), 10 mM HEPES (Thermo Fisher Scientific, cat. 15630080), 1X GlutaMAX supplement (Thermo Fisher Scientific, cat. 35050061), 0.1 mg/mL primocin (InvivoGen, San Diego, CA, cat. ant-pm-2), 10% defined fetal bovine serum, heat inactivated (HyClone Laboratories Inc., Logan, UT, cat. SH30070.03HI), 50% L-WRN conditioned media (ATCC, cat. CRL-3276), 1.25 mM N-Acetyl-L-cysteine (Sigma-Aldrich, cat. A9165), 10 mM nicotinamide (Sigma-Aldrich, cat. N0636), 1X B-27 supplement (Thermo Fisher Scientific, cat. 17504044), 1X N-2 supplement (Thermo Fisher Scientific, cat. […]

[1] = second compound 0.0316 µM, first compound 0.0316 µM
[2] = second compound 0.0316 µM, first compound 0.1 µM
[3] = second compound 0.0316 µM, first compound 0.316 µM
[4] = second compound 0.0316 µM, first compound 1 µM
[5] = second compound 0.0316 µM, first compound 3.16 µM
[6] = second compound 0.0316 µM, first compound 10 µM
[7] = second compound 0.1 µM, first compound 0.0316 µM
[8] = second compound 0.1 µM, first compound 0.1 µM
[9] = second compound 0.1 µM, first compound 0.316 µM
[10] = second compound 0.1 µM, first compound 1 µM
[11] = second compound 0.1 µM, first compound 3.16 µM
[12] = second compound 0.1 µM, first compound 10 µM
[13] = second compound 0.316 µM, first compound 0.0316 µM
[14] = second compound 0.316 µM, first compound 0.1 µM
[15] = second compound 0.316 µM, first compound 0.316 µM
[16] = second compound 0.316 µM, first compound 1 µM
[17] = second compound 0.316 µM, first compound 3.16 µM
[18] = second compound 0.316 µM, first compound 10 µM
[19] = second compound 1 µM, first compound 0.0316 µM
[20] = second compound 1 µM, first compound 0.1 µM
[21] = second compound 1 µM, first compound 0.316 µM
[22] = second compound 1 µM, first compound 1 µM
[23] = second compound 1 µM, first compound 3.16 µM
[24] = second compound 1 µM, first compound 10 µM
[25] = second compound 3.16 µM, first compound 0.0316 µM
[26] = second compound 3.16 µM, first compound 0.1 µM
[27] = second compound 3.16 µM, first compound 0.316 µM
[28] = second compound 3.16 µM, first compound 1 µM
[29] = second compound 3.16 µM, first compound 3.16 µM
[30] = second compound 3.16 µM, first compound 10 µM
[31] = second compound 10 µM, first compound 0.0316 µM
[32] = second compound 10 µM, first compound 0.1 µM
[33] = second compound 10 µM, first compound 0.316 µM
[34] = second compound 10 µM, first compound 1 µM
[35] = second compound 10 µM, first compound 3.16 µM
[36] = second compound 10 µM, first compound 10 µM
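Note: spheroids exposed to drugs for one week before measurement.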
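Throughout, for viability, T/C: percent viability relative to DMSO vehicle control taken as 100%.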

CCc1cc2c(N3CCc4c(cc(Cn5ccnc5)cc4-c4cn(C)nc4C(F)(F)F)C3=O)cc(C)nc2c(OC)n1 + Cc1cccc(N(C)C(=O)C2C(O)CCN2c2nc(C)cc(C(F)(F)F)c2C#N)c1
IC50 (second compound 0.0316 µM): > 10 µM | IC50 (second compound 0.1 µM): > 10 µM | IC50 (second compound 0.316 µM): > 10 µM | IC50 (second compound 1 µM): > 10 µM | IC50 (second compound 3.16 µM): > 10 µM | IC50 (second compound 10 µM): > 10 µM | viability, T/C [1]: 96.3% | viability, T/C [2]: 92.5% | viability, T/C [3]: 96.6% | viability, T/C [4]: 104% | viability, T/C [5]: 94.8% | viability, T/C [6]: 61.3% | viability, T/C [7]: 109% | viability, T/C [8]: 109% | viability, T/C [9]: 90.3% | viability, T/C [10]: 94.8% | viability, T/C [11]: 80.9% | viability, T/C [12]: 71.3% | viability, T/C [13]: 108% | viability, T/C [14]: 115% | viability, T/C [15]: 121% | viability, T/C [16]: 106% | viability, T/C [17]: 87.9% | viability, T/C [18]: 65.3% | viability, T/C [19]: 105% | viability, T/C [20]: 100% | viability, T/C [21]: 99.7% | viability, T/C [22]: 90.2% | viability, T/C [23]: 88.3% | viability, T/C [24]: 58.5% | viability, T/C [25]: 117% | viability, T/C [26]: 98.3% | viability, T/C [27]: 95.3% | viability, T/C [28]: 84.5% | viability, T/C [29]: 80.2% | viability, T/C [30]: 70.2% | viability, T/C [31]: 109% | viability, T/C [32]: 117% | viability, T/C [33]: 106% | viability, T/C [34]: 82.2% | viability, T/C [35]: 77.8% | viability, T/C [36]: 58.6%

CC(C)n1c(=O)n(C)c2cnc3cc(F)c(-c4ccc(OCCCN5CCCCC5)nc4)cc3c21 + Nc1ccc(C#CCN(C(=O)Cc2ncc(C(F)(F)F)cc2C(F)(F)F)c2ccc(F)cc2)nn1
IC50 (second compound 0.0316 µM): > 10 µM | IC50 (second compound 0.1 µM): > 10 µM | IC50 (second compound 0.316 µM): > 10 µM | IC50 (second compound 1 µM): > 10 µM | IC50 (second compound 3.16 µM): > 10 µM | IC50 (second compound 10 µM): > 10 µM | viability, T/C [1]: 112% | viability, T/C [2]: 105% | viability, T/C [3]: 105% | viability, T/C [4]: 111% | viability, T/C [5]: 109% | viability, T/C [6]: 72.9% | viability, T/C [7]: 105% | viability, T/C [8]: 102% | viability, T/C [9]: 121% | viability, T/C [10]: 105% | viability, T/C [11]: 102% | viability, T/C [12]: 78.7% | viability, T/C [13]: 126% | viability, T/C [14]: 123% | viability, T/C [15]: 89.7% | viability, T/C [16]: 108% | viability, T/C [17]: 97.3% | viability, T/C [18]: 84.5% | viability, T/C [19]: 105% | viability, T/C [20]: 102% | viability, T/C [21]: 91.8% | viability, T/C [22]: 105% | viability, T/C [23]: 93.1% | viability, T/C [24]: 79.7% | viability, T/C [25]: 115% | viability, T/C [26]: 109% | viability, T/C [27]: 113% | viability, T/C [28]: 116% | viability, T/C [29]: 96.7% | viability, T/C [30]: 78.3% | viability, T/C [31]: 93.5% | viability, T/C [32]: 81.5% | viability, T/C [33]: 98.1% | viability, T/C [34]: 86.6% | viability, T/C [35]: 79.5% | viability, T/C [36]: 71.5%

COc1ccc([C@@H](O)c2cc(-c3ncnc4cc(N5CCOCC5)ccc34)c(F)cc2Cl)nn1 + Nc1ccc(C#CCN(C(=O)Cc2ncc(C(F)(F)F)cc2C(F)(F)F)c2ccc(F)cc2)nn1
IC50 (second compound 0.0316 µM): > 10 µM | IC50 (second compound 0.1 µM): 9.37 µM | IC50 (second compound 0.316 µM): > 10 µM | IC50 (second compound 1 µM): 9 µM | IC50 (second compound 3.16 µM): > 10 µM | IC50 (second compound 10 µM): > 10 µM | viability, T/C [1]: 116% | viability, T/C [2]: 112% | viability, T/C [3]: 98% | viability, T/C [4]: 105% | viability, T/C [5]: 91.5% | viability, T/C [6]: 50% | viability, T/C [7]: 94.3% | viability, T/C [8]: 89.4% | viability, T/C [9]: 100% | viability, T/C [10]: 105% | viability, T/C [11]: 105% | viability, T/C [12]: 47% | viability, T/C [13]: 106% | viability, T/C [14]: 108% | viability, T/C [15]: 105% | viability, T/C [16]: 104% | viability, T/C [17]: 88.8% | viability, T/C [18]: 54.3% | viability, T/C [19]: 102% | viability, T/C [20]: 98.5% | viability, T/C [21]: 105% | viability, T/C [22]: 106% | viability, T/C [23]: 106% | viability, T/C [24]: 44.4% | viability, T/C [25]: 103% | viability, T/C [26]: 101% | viability, T/C [27]: 96.7% | viability, T/C [28]: 96% | viability, T/C [29]: 81.9% | viability, T/C [30]: 54.4% | viability, T/C [31]: 99.1% | viability, T/C [32]: 93.5% | viability, T/C [33]: 91.1% | viability, T/C [34]: 86.4% | viability, T/C [35]: 80.4% | viability, T/C [36]: 54%

Source: PubChem BioAssay AID1963849 (Molecular Pharmacology Branch, DTP, NCI, 2024)
